In DBAASP:
≈ marks a conversion by molar mass, not a printed value. Blank lines part the entries; values can stand above or below the compound they belong to.

Columns and labels:
Experiment in all cases: ≥ marks a high value that may be exact or a test limit, other limits are often not marked, values filed in µg/mL are converted to µM
Candida albicans = tested on: Candida albicans
[1] = tested on: Enterococcus faecalis ATCC 29212
Escherichia coli DC2 = tested on: Escherichia coli DC2
Escherichia coli KF130 = tested on: Escherichia coli KF130
Escherichia coli UB1005 = tested on: Escherichia coli UB1005
[2] = tested on: Pseudomonas aeruginosa H374
[3] = tested on: Pseudomonas aeruginosa H744
[4] = tested on: Pseudomonas aeruginosa PAO1
[5] = tested on: Salmonella enterica subsp. enterica serovar Typhimurium ATCC 14028s
[6] = tested on: Staphylococcus aureus ATCC 25923
[7] = tested on: Staphylococcus aureus R147
[8] = tested on: Staphylococcus aureus SAP 0017
[9] = tested on: Staphylococcus epidermidis
Escherichia coli = tested on: Escherichia coli
Listeria monocytogenes = tested on: Listeria monocytogenes
[10] = tested on: Neisseria gonorrhoeae F-62
[11] = tested on: Neisseria gonorrhoeae FA-19
Aspergillus niger = tested on: Aspergillus niger
[12] = tested on: Candida albicans IOC 4558
Candida albicans MDM8 = tested on: Candida albicans MDM8
[13] = tested on: Candida glabrata IOC 4565
Candida krusei IOC 4559 = tested on: Candida krusei IOC 4559
[14] = tested on: Candida parapsilosis IOC 456416
[15] = tested on: Candida tropicalis IOC 45608
[16] = tested on: Bacillus subtilis IFO 3513
[17] = tested on: Escherichia coli IFO 12734
[18] = tested on: Staphylococcus aureus IFO 12732
[19] = tested on: Acinetobacter baumannii ATCC 19606
Acinetobacter junii RT-4 = tested on: Acinetobacter junii RT-4
Bacillus megaterium Bm11 = tested on: Bacillus megaterium Bm11
[20] = tested on: Candida albicans ATCC 10231
[21] = tested on: Escherichia coli ATCC 25922
Escherichia coli D21 = tested on: Escherichia coli D21
[22] = tested on: Pseudomonas aeruginosa ATCC 15692
[23] = tested on: Pseudomonas syringae pv. tabaci 1918NCPPB
Saccharomyces cerevisiae = tested on: Saccharomyces cerevisiae
[24] = tested on: Schizosaccharomyces pombe
[25] = tested on: Staphylococcus aureus Cowan 1
Staphylococcus capitis 1 = tested on: Staphylococcus capitis 1
[26] = tested on: Staphylococcus epidermidis ATCC 12228
[27] = tested on: Streptococcus pyogenes ATCC 21547
[28] = tested on: Yersinia pseudotuberculosis YPIII

Compound: CC(C)[C@@H]1NC(=O)[C@H](CCCN=C(N)N)NC(=O)[C@H](Cc2ccccc2)NC(=O)[C@@H](NC(=O)[C@H](Cc2c[nH]c3ccccc23)NC(=O)[C@H](CCCN=C(N)N)NC(=O)[C@@H](N)CCCN=C(N)N)CSSC[C@@H](C(=O)N[C@@H](CCCN=C(N)N)C(N)=O)NC(=O)[C@H](CCCCN)NC(=O)[C@H](CCCN=C(N)N)NC(=O)[C@H](Cc2ccc(O)cc2)NC(=O)[C@@H]2CSSC[C@H](NC1=O)C(=O)N[C@@H](Cc1ccc(O)cc1)C(=O)N[C@@H](CCCN=C(N)N)C(=O)NCC(=O)N[C@@H](CCCN=C(N)N)C(=O)N[C@@H](Cc1ccccc1)C(=O)N2 [RRWCFRVCYRGRFCYRKCR]
MIC (Candida albicans): 0.765 µM (≈ 2 µg/mL) | MIC [1]: 0.191 µM (≈ 0.499 µg/mL) | MIC (Escherichia coli DC2): 0.0956 µM (≈ 0.25 µg/mL) | MIC (Escherichia coli KF130): 0.0956 µM (≈ 0.25 µg/mL) | MIC (Escherichia coli UB1005): 0.0956 µM (≈ 0.25 µg/mL) | MIC [2]: 0.191 µM (≈ 0.499 µg/mL) | MIC [3]: 0.382 µM (≈ 0.998 µg/mL) | MIC [4]: 0.382 µM (≈ 0.998 µg/mL) | MIC [5]: 0.191 µM (≈ 0.499 µg/mL) | MIC [6]: 0.382 µM (≈ 0.998 µg/mL) | MIC [7]: 0.382 µM (≈ 0.998 µg/mL) | MIC [8]: 0.382 µM (≈ 0.998 µg/mL) | MIC [9]: 0.0956 µM (≈ 0.25 µg/mL)

Compound: CC[C@H](C)[C@H](NC(=O)[C@H](CC(C)C)NC(=O)[C@@H]1CCCN1C(=O)[C@H](CCCCN)NC(=O)[C@H](CCCCN)NC(=O)[C@H](Cc1c[nH]c2ccccc12)NC(=O)[C@@H]1CCCN1C(=O)[C@H](CCCCN)NC(=O)[C@H](CC(C)C)NC(=O)[C@@H]1CCCN1C(=O)[C@H](Cc1c[nH]c2ccccc12)NC(=O)[C@H](CCCN=C(N)N)NC(=O)[C@@H](N)CCCN=C(N)N)C(N)=O [RRWPLKPWKKPLI]
MIC [16]: 3.64 µM (≈ 6.25 µg/mL) | MIC [17]: 29.1 µM (≈ 50 µg/mL) | MIC [18]: 3.64 µM (≈ 6.25 µg/mL)

Compound: CC[C@H](C)[C@H](NC(=O)[C@H](CCCN=C(N)N)NC(=O)CNC(=O)[C@H](CC(C)C)NC(=O)[C@H](Cc1ccccc1)NC(=O)[C@H](CCCCN)NC(=O)[C@H](CO)NC(=O)[C@H](Cc1ccccc1)NC(=O)[C@H](Cc1c[nH]c2ccccc12)NC(=O)[C@@H]1CCCN1C(=O)[C@H](CC(C)C)NC(=O)[C@@H](N)Cc1ccccc1)C(=O)N[C@@H](CC(C)C)C(N)=O [FLPWFSKFLGRIL]
MIC [19]: 12 µM (≈ 19.5 µg/mL) | MIC (Acinetobacter junii RT-4): 12 µM (≈ 19.5 µg/mL) | MIC (Bacillus megaterium Bm11): 3 µM (≈ 4.87 µg/mL) | MIC [20]: 12 µM (≈ 19.5 µg/mL) | MIC [1]: 12 µM (≈ 19.5 µg/mL) | MIC [21]: 12 µM (≈ 19.5 µg/mL) | MIC (Escherichia coli D21): 24 µM (≈ 39 µg/mL) | MIC [22]: ≥ 48 µM | MIC [23]: 12 µM (≈ 19.5 µg/mL) | MIC (Saccharomyces cerevisiae): 12 µM (≈ 19.5 µg/mL) | MIC [24]: 6 µM (≈ 9.74 µg/mL) | MIC [6]: 3 µM (≈ 4.87 µg/mL) | MIC [25]: 3 µM (≈ 4.87 µg/mL) | MIC (Staphylococcus capitis 1): 3 µM (≈ 4.87 µg/mL) | MIC [26]: 3 µM (≈ 4.87 µg/mL) | MIC [27]: 6 µM (≈ 9.74 µg/mL) | MIC [28]: 6 µM (≈ 9.74 µg/mL)

Second part, the compound after the results:

MIC (Candida albicans): 14.4 µM (≈ 30.3 µg/mL) | MIC (Escherichia coli): 0.997 µM (≈ 2.1 µg/mL) | MIC (Listeria monocytogenes): 0.902 µM (≈ 1.9 µg/mL) | MIC [10]: 0.57 µM (≈ 1.2 µg/mL) | MIC [11]: 1.66 µM (≈ 3.49 µg/mL)
Compound: CC[C@H](C)[C@@H]1NC(=O)[C@H](Cc2c[nH]c3ccccc23)NC(=O)CNC(=O)[C@H](CCCN=C(N)N)NC(=O)[C@@H]2CSSC[C@H](NC1=O)C(=O)N[C@@H](Cc1ccccc1)C(=O)N[C@H](C(=O)N[C@H](C(=O)NCC(=O)N[C@@H](CCCN=C(N)N)C(=O)O)C(C)C)CSSC[C@H](NC(=O)[C@H](CC(C)C)NC(=O)[C@H](CCCN=C(N)N)NC(=O)CNC(=O)CNC(=O)[C@@H](N)CCCN=C(N)N)C(=O)N[C@@H](Cc1ccc(O)cc1)C(=O)N2 [RGGRLCYCRGWICFCVGR]

MIC (Aspergillus niger): 7.07 µM (≈ 28.3 µg/mL) | MIC [12]: 3.54 µM (≈ 14.2 µg/mL) | MIC (Candida albicans MDM8): 3.54 µM (≈ 14.2 µg/mL) | MIC [13]: 3.54 µM (≈ 14.2 µg/mL) | MIC (Candida krusei IOC 4559): 3.54 µM (≈ 14.2 µg/mL) | MIC [14]: 3.54 µM (≈ 14.2 µg/mL) | MIC [15]: 3.54 µM (≈ 14.2 µg/mL)
Compound: CC[C@H](C)[C@@H]1NC(=O)[C@H](C)NC(=O)[C@@H](NC(=O)[C@@H](NC(=O)[C@@H](N)Cc2ccccc2)[C@@H](C)O)CSSC[C@@H]2NC(=O)[C@H](CCCCN)NC(=O)[C@H](CCCCN)NC(=O)[C@H](CCC(=O)O)NC(=O)CNC(=O)[C@H](CO)NC(=O)CNC(=O)[C@H](CCCCN)NC(=O)[C@@H]3CSSC[C@@H](C(=O)N[C@H](C(=O)N[C@@H](CCCCN)C(=O)N[C@H](C(=O)O)C(C)C)C(C)C)NC(=O)[C@H](C(C)C)NC(=O)[C@H](CC(N)=O)NC(=O)[C@H](Cc4ccccc4)NC(=O)[C@H](CCCCN)NC(=O)[C@H](CSSC[C@H](NC(=O)[C@H](CO)NC1=O)C(=O)N[C@@H](CC(=O)O)C(=O)N[C@@H]([C@@H](C)CC)C(=O)N[C@@H](CCCCN)C(=O)N[C@@H](C(C)C)C(=O)N[C@@H](CC(N)=O)C(=O)NCC(=O)N[C@@H](CCCCN)C(=O)N1CCC[C@H]1C(=O)N3)NC(=O)[C@H](CO)NC(=O)[C@H](Cc1c[nH]c3ccccc13)NC(=O)CNC(=O)CNC(=O)[C@H](CO)NC2=O [FTCAISCDIKVNGKPCKGSGEKKCSGGWSCKFNVCVKV]
